Experimental data as given in PubChem BioAssay (NCI).
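1) Cells in 96-well plates. 2) Compound, 48 h, 5 concentrations. 3) Linear interpolation between surrounding doses. 4) Unreached endpoint = highest concentration. At the TGI there is no net growth.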

What was measured:
Test in all cases: DTP human tumour cell line panel, 48 h
786-0 renal = test system: 786-0 renal
A498 renal = test system: A498 renal
A549 NSCLC = test system: A549 NSCLC
ACHN renal = test system: ACHN renal
BT-549 breast = test system: BT-549 breast
CAKI-1 renal = test system: CAKI-1 renal
CCRF-CEM leukemia = test system: CCRF-CEM leukemia
COLO 205 colon = test system: COLO 205 colon
DLD-1 colon = test system: DLD-1 colon
DMS 114 small cell lung = test system: DMS 114 small cell lung
DMS 273 small cell lung = test system: DMS 273 small cell lung
DU-145 prostate = test system: DU-145 prostate
EKVX NSCLC = test system: EKVX NSCLC
HCC-2998 colon = test system: HCC-2998 colon
HCT-116 colon = test system: HCT-116 colon
HCT-15 colon = test system: HCT-15 colon
HL-60(TB) leukemia = test system: HL-60(TB) leukemia
HOP-18 NSCLC = test system: HOP-18 NSCLC
HOP-62 NSCLC = test system: HOP-62 NSCLC
HOP-92 NSCLC = test system: HOP-92 NSCLC
HS 578T breast = test system: HS 578T breast
HT29 colon = test system: HT29 colon
IGROV1 ovarian = test system: IGROV1 ovarian
K-562 leukemia = test system: K-562 leukemia
KM12 colon = test system: KM12 colon
KM20L2 colon = test system: KM20L2 colon
LOX IMVI melanoma = test system: LOX IMVI melanoma
LXFL 529 NSCLC = test system: LXFL 529 NSCLC
M14 melanoma = test system: M14 melanoma
M19-MEL melanoma = test system: M19-MEL melanoma
MALME-3M melanoma = test system: MALME-3M melanoma
MCF7 breast = test system: MCF7 breast
MDA-MB-231 breast = test system: MDA-MB-231 breast
MDA-MB-435 = test system: MDA-MB-435
MDA-N = test system: MDA-N
MOLT-4 leukemia = test system: MOLT-4 leukemia
NCI-H226 lung = test system: NCI-H226 lung
NCI-H23 lung = test system: NCI-H23 lung
NCI-H460 lung = test system: NCI-H460 lung
NCI-H522 lung = test system: NCI-H522 lung
NCI/ADR-RES ovarian = test system: NCI/ADR-RES ovarian
OVCAR-3 ovarian = test system: OVCAR-3 ovarian
OVCAR-4 ovarian = test system: OVCAR-4 ovarian
OVCAR-5 ovarian = test system: OVCAR-5 ovarian
OVCAR-8 ovarian = test system: OVCAR-8 ovarian
PC-3 prostate = test system: PC-3 prostate
RPMI-8226 leukemia = test system: RPMI-8226 leukemia
RXF 393 renal = test system: RXF 393 renal
SF-268 CNS = test system: SF-268 CNS
SF-295 CNS = test system: SF-295 CNS
SF-539 CNS = test system: SF-539 CNS
SK-MEL-2 melanoma = test system: SK-MEL-2 melanoma
SK-MEL-28 melanoma = test system: SK-MEL-28 melanoma
SK-MEL-5 melanoma = test system: SK-MEL-5 melanoma
SK-OV-3 ovarian = test system: SK-OV-3 ovarian
SN12C renal = test system: SN12C renal
SNB-19 CNS = test system: SNB-19 CNS
SNB-75 CNS = test system: SNB-75 CNS
SNB-78 CNS = test system: SNB-78 CNS
SR leukemia = test system: SR leukemia
SW-620 colon = test system: SW-620 colon
TK-10 renal = test system: TK-10 renal
U251 CNS = test system: U251 CNS
UACC-257 melanoma = test system: UACC-257 melanoma
UACC-62 melanoma = test system: UACC-62 melanoma
UO-31 renal = test system: UO-31 renal
XF 498 CNS = test system: XF 498 CNS

Structure (SMILES): O=C1/C(=C/c2ccc(Cl)cc2)CCC1CNc1ccc(Cl)cc1 (configuration not stated)
- TGI (786-0 renal): 6.73 µM
- TGI (A498 renal): 54.8 µM
- TGI (A549 NSCLC): 38.1 µM
- TGI (ACHN renal): 26.9 µM
- TGI (BT-549 breast): 65.3 µM
- TGI (CAKI-1 renal): 28.9 µM
- TGI (CCRF-CEM leukemia): 15.5 µM
- TGI (COLO 205 colon): 15.8 µM
- TGI (DLD-1 colon): 10.7 µM
- TGI (DMS 114 small cell lung): > 48.3 µM
- TGI (DMS 273 small cell lung): > 39.9 µM
- TGI (DU-145 prostate): 31.8 µM
- TGI (EKVX NSCLC): 38.4 µM
- TGI (HCC-2998 colon): 21.6 µM
- TGI (HCT-116 colon): 44.6 µM
- TGI (HCT-15 colon): 15.3 µM
- TGI (HL-60(TB) leukemia): 22.1 µM
- TGI (HOP-18 NSCLC): > 74.5 µM
- TGI (HOP-62 NSCLC): 56.1 µM
- TGI (HOP-92 NSCLC): 50.4 µM
- TGI (HS 578T breast): 64.9 µM
- TGI (HT29 colon): 41.1 µM
- TGI (IGROV1 ovarian): 27.3 µM
- TGI (K-562 leukemia): 21.3 µM
- TGI (KM12 colon): 11.7 µM
- TGI (KM20L2 colon): 12.6 µM
- TGI (LOX IMVI melanoma): 15.1 µM
- TGI (LXFL 529 NSCLC): 10.5 µM
- TGI (M14 melanoma): 22.8 µM
- TGI (M19-MEL melanoma): > 50.4 µM
- TGI (MALME-3M melanoma): 44.8 µM
- TGI (MCF7 breast): 10.8 µM
- TGI (MDA-MB-231 breast): 20.5 µM
- TGI (MDA-MB-435): 37.6 µM
- TGI (MDA-N): 40.4 µM
- TGI (MOLT-4 leukemia): 27.5 µM
- TGI (NCI-H226 lung): 98 µM
- TGI (NCI-H23 lung): 55.1 µM
- TGI (NCI-H460 lung): > 100 µM
- TGI (NCI-H522 lung): 3.89 µM
- TGI (NCI/ADR-RES ovarian): 67.1 µM
- TGI (OVCAR-3 ovarian): 21.5 µM
- TGI (OVCAR-4 ovarian): 54.5 µM
- TGI (OVCAR-5 ovarian): > 77.3 µM
- TGI (OVCAR-8 ovarian): 19.2 µM
- TGI (PC-3 prostate): 45.6 µM
- TGI (RPMI-8226 leukemia): 6.68 µM
- TGI (RXF 393 renal): 26.4 µM
- TGI (SF-268 CNS): 40.6 µM
- TGI (SF-295 CNS): > 100 µM
- TGI (SF-539 CNS): 23.3 µM
- TGI (SK-MEL-2 melanoma): 58.5 µM
- TGI (SK-MEL-28 melanoma): 35.9 µM
- TGI (SK-MEL-5 melanoma): 22 µM
- TGI (SK-OV-3 ovarian): > 31.4 µM
- TGI (SN12C renal): 29.4 µM
- TGI (SNB-19 CNS): 35.7 µM
- TGI (SNB-75 CNS): 85.2 µM
- TGI (SNB-78 CNS): > 100 µM
- TGI (SR leukemia): 43.8 µM
- TGI (SW-620 colon): 11.4 µM
- TGI (TK-10 renal): 21.8 µM
- TGI (U251 CNS): 29.6 µM
- TGI (UACC-257 melanoma): 32.4 µM
- TGI (UACC-62 melanoma): 7.29 µM
- TGI (UO-31 renal): 30.1 µM
- TGI (XF 498 CNS): 29.5 µM
